Assay: Organoleptic description of the compounds (umami, mouthfeel)
Conditions: for Additional feeling imparted: in a meet type application

Compound | Taste / organoleptic character of the compound | Additional feeling imparted
O=C(O)CCC(=O)N[C@@H](CCC(=O)O)C(=O)O [succinoyl-Glu, N-(3-carboxypropionyl)-glutamic acid] | slightly acidic note together with a well perceivable umami taste or character having a broth connotation | 
O=C(O)CCCC(=O)N[C@@H](CCC(=O)O)C(=O)O [glutaryl-Glu, N-(4-carboxybutanoyl)L-glutamic acid] |  | slightly more fatty feeling
CC(C)C[C@H](NC(=O)CCC(=O)O)C(=O)O [succinoyl-Leu, N-(3-carboxypropionyl)leucine] | slightly more acidic and slightly less umami taste than the one of succinoyl-Glu | 
CC(C)C[C@H](NC(=O)CCCC(=O)O)C(=O)O [Glutaryl-Leu, N-(4-carboxybutanoyl)-L-leucine] |  | slightly more fatty feeling
O=C(O)/C=C\C(=O)N[C@@H](CCC(=O)O)C(=O)O [Maleyl-Glu, (Z)-N-(3-carboxy-2-propenoyl)-L-glutamic acid] |  | slightly more juicy feeling

— patent publication US20050233058A1, “Aminoacid derivatives of dicarboxylic acids as flavor ingredients” (priority 2004, published 2005)
